Test results: patent EP0167553B1, “NEW THERAPEUTICAL APPLICATION OF AN INDANE DIONE DERIVATIVE AND PHARMACEUTICAL COMPOSITIONS INTENDED TO SAID UTILIZATION” (priority 1983, dated 1985)
Where “and” joins values, the source holds several entries; their conditions need not be identical. Identical values can stand only once. Like-named read-outs stand apart in the source and are kept apart here.

What was measured:
[1] = Acute toxicity, single administration, digestive (oral) route; type: in vivo; details: mouse, in vivo, po
Description: (§1) Souris SWISS mâles et femelles de 22 à 25g de poids corporel. Animaux EOPS. (exempte d'organisme pathogène spécifique), en provenance de l'élevage CERJ., 53680 LE GENEST et acclimatés au moins 8 jours à l'animalerie du laboratoire.
(§2) Sauf mention contraire précisée dans les tableaux de résultats, 10 animaux par dose, sexe et cage en MAKROLON SAFI@ de 40/25 cm. Litière de copeaux de bois blanc. Alimentation standard pour rats et souris UAR et eau ordinaire à volonté.
(§3) Ils sont administrés sans jeûne préalable: • - par voie digestive (intubation gastrique par sonde oesophagienne métallique) à raison de 0,5 ml ou 1 ml pour 20 g de poids corporel d'une suspension aqueuse à 3p.100 en gomme arabique du dérivé testé. • - par voie intrapéritonéale à raison de 0,5 ml ou 1 ml pour 20 g d'une suspension du dérivé testé dans le soluté isotonique de chlorure de sodium à 3p.100 en gomme arabique.
(§4) Pendant 6 heures après l'administration unique, puis tous les jours pendant 15 jours.
(§5) S'il y a lieu, les doses létales cinquante (DL50) sont calculées selon les méthodes de: • - Behrens et Karber (B.K.) • - Miller et Tainter (M.T.), cette dernière méthode permettant d'attribuer, pour le seuil de probabilité de P = 0,05 un intervalle de confiance aux DL 50.
(§6) En outre, sont déterminées les DLO et DL100. • - DLO = DMT: Dose Maxima toujours tolérée • - DL100 = DmM: Dose minima toujours Mortelle.

Souris SWISS = assay: as above; type: in vivo; details: for létalité, symptomatologie toxique: 10.000 mg/kg VO, single dose, 10 souris mâles et femelles
Description: as §1, §2, §3, §4, §5, §6

Rats: Wistar femelles [2] = assay: Atherogenic diet (modified Aubert technique): histopathological examination; type: in vivo, Rat Wistar; details: 100 mg/kg; three parameters scored relative to Clofibrate
Description: La technique utilisée est celle, légèrement modifiée, de AUBERT D., FERAUD J.C., LACAZE B., PEPINO., PANAK E. et PODESTA M. "Athérogénèse expérimentale chez le Rat Wistar". ATHEROSCLEROSIS 2Q (1974) 263 - 280.
(§7) • - Rats: Wistar femelles, E.O.P.S. en provenance de l'élevage EVIC-CEBA. • - Poids corporel: 160 180 g au départ de l'étude • - Alimentation: UAR A03, enrichi en cholestérol (0,5 %) et en Acide chloique (0,5 %). • - Eau de boisson: eau de ville. • - 15 animaux par lot et par cage MAKROLON SAFI® de 59 x 38,5 cm sur litière de copeaux de bois blanc dépoussiérés. • - Cages placées dans un module animalerie climatisé (20°C * 1°C), à l'humidité constante (50 % ± 10 %). Durée d'éclairement: 12 heures par jour (7 h à 19 h). • - Administration des produits: Après 15 jours de régime athéromateux, on leur administre par voie orale pendant 4 jours 250 000 Ul/kg de vitamine D2 (Stérogyl 15 H) en solution dans l'huile d'olive. On administre ensuite les produits à étudier pendant 4 semaines dès la fin de l'administration de l'agent lésionnel.
Les aortes, les foies et les coeurs sont fixés au Bouitaqueux et inclus à la paraffine après passage par les alcools à concentration croissante et par le toluène.
Les foies sont colorés par la technique à l'hématéine-éosine. Les aortes sont colorées par: • - la technique à l'orcéine - vert lumière afin de mettre en évidence les altérations structurales des lames élastiques. • - la technique à l'acide périodique plus réactif de Schiff pour déceler les dépôts de mucopolysaccharides, • - la technique à l'hématéine plus éosine afin de mettre en évidence les dépôts de calcium.
L'intensité des altérations observées et le degré d'athéromatose sont indiquées par l'un des signes:
• - Pas d'athéromatose 0 • = Très léger degré d'athéromatose 0,5 • + Léger degré d'athéromatose 1 • ++ Moyen degré d'athéromatose 2 • +++Important degré d'athéromatose 3
Les zones athéromateuses sont dénombrées sur une longueur identique pour chacune des aortes examinées. […]

Rats: Wistar femelles [3] = assay: Atherogenic diet (modified Aubert technique): mortality, body weight, tolerance, overall score; type: in vivo, Rat Wistar; details: 100 mg/kg; for taux de mortalité: lots of 15 rats on atherogenic diet; for Score Total: sum of Biochimie, Risque athérogène, Macroscopie, Histologie
Procedure: as §7
L'étude porte sur 5 Lots de 15 rats (tableau N° IV)
• - Le comportement et l'[…] pondérale des animaux sont étudiés par l'observation quotidienne et les pesées hebdomadaires. L'étude de l'évolution pondérale ne montre pas de différence significative entre les différents lots. C'est un indice de bonne tolérance du traitement. • - La moralité est notée dans chaque lot; elle peut atteindre 30 % des animaux ce qui nécessite des lots de 15 animaux. L'administration chronique de 100 mg/kg de Clofibrate correspond à la dose maximale tolérée par le Rat sain selon nos expériences personnelles.
Les scores obtenus par les différents produits étudiés sont les suivants (Tableau V)

Row | Compound | LD50 at 360 h ([1]; DL50) [mg/kg] | DL50 (Souris SWISS; mouse, in vivo, po, 360 h) [mg/kg] | Histologie score (Rats: Wistar femelles [2]) | taux de mortalité (Rats: Wistar femelles [3]) | Score Total (Rats: Wistar femelles [3]) | LD50 at 360 h ([1]; VO, souris mâles et femelles, read-out: DL50) [mg/kg] | létalité, symptomatologie toxique (Souris SWISS) | létalité, symptomatologie toxique (Souris SWISS; listed as dérivé) | DLO (Souris SWISS; VO, souris mâles et femelles) [mg/kg] | DL100 (Souris SWISS; mouse, in vivo, 21600 min) [mg/kg]
1 | CCOC(=O)C(C)(C)Oc1ccc(Cl)cc1 [Clofibrate] | 2500 ± 235 | 2650 ± 190 | 3.00 | 4/15 | 13.00 | – | – | – | – | –
2 | COc1ccc(C(=O)CC2(O)C(=O)c3ccccc3C2=O)cc1OC [Produit de l'invention, 2-[(3,4-dimethoxybenzoyl)methyl] 2-hydroxy 1,3-dioxo indane] | – | – | 1.3 and 1.32 | 2/15 | 10.46 | > 10000 | ni létalité, ni symptomatologie toxique | n'est pas toxique | ≥ 10.000 | > 10000
